Results on six compounds are retold here after paper PMC4858680, “A platinum-based hybrid drug design approach to circumvent acquired resistance to molecular targeted tyrosine kinase inhibitors” (Scientific Reports, 2016).

Read-outs that look alike come from different tables or passages of the source.

In assay [1] the target is T1, EPHB3 (Homo sapiens, UniProt P54753).
T1 construct: purchased DiscoveRx KINOMEscan
T1 sequence (P54753 34-998): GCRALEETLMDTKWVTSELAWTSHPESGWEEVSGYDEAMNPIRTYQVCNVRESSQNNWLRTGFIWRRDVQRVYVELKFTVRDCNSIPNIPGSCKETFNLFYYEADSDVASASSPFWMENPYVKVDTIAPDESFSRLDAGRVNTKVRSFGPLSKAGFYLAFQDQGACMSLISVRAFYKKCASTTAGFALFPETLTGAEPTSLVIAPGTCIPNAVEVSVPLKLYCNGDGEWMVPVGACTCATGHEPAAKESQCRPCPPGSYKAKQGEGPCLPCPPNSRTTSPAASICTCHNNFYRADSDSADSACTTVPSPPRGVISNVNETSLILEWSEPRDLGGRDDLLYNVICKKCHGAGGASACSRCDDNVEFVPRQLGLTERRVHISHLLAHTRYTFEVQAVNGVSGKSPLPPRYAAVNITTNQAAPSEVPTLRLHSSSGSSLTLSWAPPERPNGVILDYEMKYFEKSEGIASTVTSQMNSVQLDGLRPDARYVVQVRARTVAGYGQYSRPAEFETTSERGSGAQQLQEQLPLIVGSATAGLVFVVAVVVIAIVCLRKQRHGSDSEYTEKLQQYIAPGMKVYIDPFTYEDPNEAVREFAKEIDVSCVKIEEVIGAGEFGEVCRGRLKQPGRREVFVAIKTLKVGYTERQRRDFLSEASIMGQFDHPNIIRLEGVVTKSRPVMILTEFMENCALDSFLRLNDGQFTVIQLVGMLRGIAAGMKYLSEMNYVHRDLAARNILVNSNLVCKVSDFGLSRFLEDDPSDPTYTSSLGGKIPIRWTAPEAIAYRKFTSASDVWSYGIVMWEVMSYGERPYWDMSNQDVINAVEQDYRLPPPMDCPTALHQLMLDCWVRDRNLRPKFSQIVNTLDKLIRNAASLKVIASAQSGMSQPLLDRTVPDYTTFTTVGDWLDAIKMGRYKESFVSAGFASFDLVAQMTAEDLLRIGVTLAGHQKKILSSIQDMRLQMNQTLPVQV
It is filed as binding. The note with it: for remaining binding at 10 µM: read-out: Percent control.

Assay [2] concerns the target TIE2 (Homo sapiens, UniProt Q02763). The note with it: 10 μM.
The target of assay [3] is T2, PDGFRA (Homo sapiens, UniProt P16234). As to conditions: 10 μM.
For assay [4], the target named is FGFR3 (Homo sapiens, UniProt P22607). As to conditions: 10 μM.
Chain of FGFR3 (P22607 23-806): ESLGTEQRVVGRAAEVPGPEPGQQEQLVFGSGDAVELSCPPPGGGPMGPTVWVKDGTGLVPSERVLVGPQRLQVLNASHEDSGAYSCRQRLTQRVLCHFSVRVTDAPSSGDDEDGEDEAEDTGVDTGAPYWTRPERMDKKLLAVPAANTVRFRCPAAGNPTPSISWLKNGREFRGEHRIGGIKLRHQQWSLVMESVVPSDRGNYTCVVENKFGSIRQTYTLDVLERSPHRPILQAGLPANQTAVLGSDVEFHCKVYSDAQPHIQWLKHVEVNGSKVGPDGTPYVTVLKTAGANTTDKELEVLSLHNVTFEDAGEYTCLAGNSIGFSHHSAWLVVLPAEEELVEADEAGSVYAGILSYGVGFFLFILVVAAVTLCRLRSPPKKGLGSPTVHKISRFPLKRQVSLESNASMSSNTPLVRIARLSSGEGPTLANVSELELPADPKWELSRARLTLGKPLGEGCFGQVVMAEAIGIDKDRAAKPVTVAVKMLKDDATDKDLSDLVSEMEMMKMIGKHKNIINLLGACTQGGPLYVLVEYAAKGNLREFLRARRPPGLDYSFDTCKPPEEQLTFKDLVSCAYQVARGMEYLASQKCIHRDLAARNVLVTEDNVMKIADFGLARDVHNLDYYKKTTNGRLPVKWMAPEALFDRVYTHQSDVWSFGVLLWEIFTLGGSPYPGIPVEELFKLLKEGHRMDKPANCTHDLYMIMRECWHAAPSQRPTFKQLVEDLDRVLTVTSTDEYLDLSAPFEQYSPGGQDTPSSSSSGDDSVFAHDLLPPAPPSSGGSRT
In assay [5] the target is T3, ZAP70 (Homo sapiens, UniProt P43403).
T3 sequence (P43403 1-619): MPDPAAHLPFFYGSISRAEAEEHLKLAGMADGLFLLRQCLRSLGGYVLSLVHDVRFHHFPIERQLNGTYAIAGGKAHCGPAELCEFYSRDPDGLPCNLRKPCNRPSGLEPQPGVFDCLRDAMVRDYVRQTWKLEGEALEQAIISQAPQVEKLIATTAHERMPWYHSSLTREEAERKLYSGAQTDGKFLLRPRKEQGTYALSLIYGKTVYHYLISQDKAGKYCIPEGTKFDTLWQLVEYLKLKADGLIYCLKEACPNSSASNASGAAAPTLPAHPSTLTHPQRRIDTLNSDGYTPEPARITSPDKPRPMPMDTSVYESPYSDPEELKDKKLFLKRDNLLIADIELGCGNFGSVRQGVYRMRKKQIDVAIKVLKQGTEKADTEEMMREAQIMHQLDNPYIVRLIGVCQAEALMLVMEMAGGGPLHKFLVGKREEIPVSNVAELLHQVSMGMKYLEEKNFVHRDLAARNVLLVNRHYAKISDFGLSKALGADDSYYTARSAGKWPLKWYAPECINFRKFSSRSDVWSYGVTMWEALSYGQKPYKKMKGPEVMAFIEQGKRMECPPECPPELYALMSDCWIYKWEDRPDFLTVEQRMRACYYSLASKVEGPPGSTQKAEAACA
The note with it: 10 μM.

Assay [6] addresses LTK (Homo sapiens, UniProt P29376). The note with it: 10 μM.
Assay [7] has as its target FGFR1 (Homo sapiens, UniProt P11362). The note with it: 10 μM.
Assay [8] deals with KIT (Homo sapiens, UniProt P10721). The note with it: 10 μM.
Assay [9] addresses KIT(L576P) (Homo sapiens, UniProt P10721, L576P). As to conditions: 10 μM.
The target of assay [10] is FLT4 (Homo sapiens, UniProt P35916). As to conditions: 10 μM.
Chain of FLT4 (P35916 25-1363): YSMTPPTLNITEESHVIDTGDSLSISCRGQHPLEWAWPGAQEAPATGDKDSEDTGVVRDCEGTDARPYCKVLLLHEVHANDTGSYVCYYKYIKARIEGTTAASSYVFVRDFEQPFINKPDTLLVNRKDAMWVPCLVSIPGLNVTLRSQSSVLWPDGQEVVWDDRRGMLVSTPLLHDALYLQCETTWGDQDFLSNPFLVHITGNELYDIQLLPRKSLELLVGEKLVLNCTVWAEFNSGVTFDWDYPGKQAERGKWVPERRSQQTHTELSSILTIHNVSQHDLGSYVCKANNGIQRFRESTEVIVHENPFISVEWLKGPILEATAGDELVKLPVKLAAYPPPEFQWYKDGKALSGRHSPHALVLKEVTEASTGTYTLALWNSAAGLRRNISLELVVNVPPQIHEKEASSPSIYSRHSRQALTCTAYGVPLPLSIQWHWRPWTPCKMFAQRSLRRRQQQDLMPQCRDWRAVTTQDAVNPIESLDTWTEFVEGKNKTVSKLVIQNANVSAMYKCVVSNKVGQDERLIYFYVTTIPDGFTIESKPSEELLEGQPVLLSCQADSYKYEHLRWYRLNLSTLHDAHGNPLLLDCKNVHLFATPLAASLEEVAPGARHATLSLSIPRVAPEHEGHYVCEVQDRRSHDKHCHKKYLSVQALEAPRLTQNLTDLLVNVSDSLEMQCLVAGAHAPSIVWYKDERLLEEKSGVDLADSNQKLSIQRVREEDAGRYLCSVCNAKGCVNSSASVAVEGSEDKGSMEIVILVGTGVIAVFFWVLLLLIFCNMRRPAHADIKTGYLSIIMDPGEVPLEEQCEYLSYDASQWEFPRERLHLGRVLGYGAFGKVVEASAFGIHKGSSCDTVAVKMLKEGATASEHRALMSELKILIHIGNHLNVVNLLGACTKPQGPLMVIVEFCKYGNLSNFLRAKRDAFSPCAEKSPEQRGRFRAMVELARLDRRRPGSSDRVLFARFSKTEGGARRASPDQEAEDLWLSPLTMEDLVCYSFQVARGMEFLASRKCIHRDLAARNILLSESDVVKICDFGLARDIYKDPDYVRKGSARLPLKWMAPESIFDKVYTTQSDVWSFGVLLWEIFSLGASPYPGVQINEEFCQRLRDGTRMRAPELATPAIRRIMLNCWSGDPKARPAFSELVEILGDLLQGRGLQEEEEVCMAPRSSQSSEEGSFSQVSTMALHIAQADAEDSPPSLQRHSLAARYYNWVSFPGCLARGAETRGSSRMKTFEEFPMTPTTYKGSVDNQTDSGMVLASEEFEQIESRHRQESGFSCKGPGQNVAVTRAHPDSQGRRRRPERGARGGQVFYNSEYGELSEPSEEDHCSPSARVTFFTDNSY
Assay [11] has as its target TRKC (Homo sapiens, UniProt Q16288). The note with it: 10 μM.
Assay [12] concerns the target FLT1 (Homo sapiens, UniProt P17948). The note with it: 10 μM.
Assay [13] has as its target RET(M918T) (Homo sapiens, UniProt P07949, M918T). As to conditions: 10 μM.
The target of assay [14] is RET (Homo sapiens, UniProt P07949). The note with it: 10 μM.
Assay [15] has as its target T4, EPHA4 (Homo sapiens, UniProt P54764).
T4 construct: purchased DiscoveRx KINOMEscan
It is filed as binding. As to conditions: 10 μM.

Assay [16] addresses T5, IGF1R (Homo sapiens, UniProt P08069).
T5 construct: purchased DiscoveRx KINOMEscan
It counts as binding. As to conditions: for remaining binding at 10 µM: read-out: Percent control.

The target of assay [17] is CSK (Homo sapiens, UniProt P41240). The experiment in a line: biochemical. The note with it: read-out: Percent control.
Chain of CSK (P41240 whole entry): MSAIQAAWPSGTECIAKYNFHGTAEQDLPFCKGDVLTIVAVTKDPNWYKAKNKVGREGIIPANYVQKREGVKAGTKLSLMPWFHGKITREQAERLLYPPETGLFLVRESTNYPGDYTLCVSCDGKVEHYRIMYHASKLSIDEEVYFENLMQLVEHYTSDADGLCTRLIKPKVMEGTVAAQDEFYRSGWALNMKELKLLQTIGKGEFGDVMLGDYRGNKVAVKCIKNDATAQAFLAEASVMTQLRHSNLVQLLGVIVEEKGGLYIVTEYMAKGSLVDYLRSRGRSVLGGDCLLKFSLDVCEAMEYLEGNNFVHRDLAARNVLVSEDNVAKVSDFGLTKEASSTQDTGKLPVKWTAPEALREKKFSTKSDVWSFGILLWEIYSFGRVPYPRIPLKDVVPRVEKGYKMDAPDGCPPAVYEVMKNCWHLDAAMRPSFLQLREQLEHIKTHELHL
Assay [18] deals with T2, PDGFRA. The experiment in a line: biochemical. As to conditions: read-out: Percent control.

T5 sequence (P08069 31-1367): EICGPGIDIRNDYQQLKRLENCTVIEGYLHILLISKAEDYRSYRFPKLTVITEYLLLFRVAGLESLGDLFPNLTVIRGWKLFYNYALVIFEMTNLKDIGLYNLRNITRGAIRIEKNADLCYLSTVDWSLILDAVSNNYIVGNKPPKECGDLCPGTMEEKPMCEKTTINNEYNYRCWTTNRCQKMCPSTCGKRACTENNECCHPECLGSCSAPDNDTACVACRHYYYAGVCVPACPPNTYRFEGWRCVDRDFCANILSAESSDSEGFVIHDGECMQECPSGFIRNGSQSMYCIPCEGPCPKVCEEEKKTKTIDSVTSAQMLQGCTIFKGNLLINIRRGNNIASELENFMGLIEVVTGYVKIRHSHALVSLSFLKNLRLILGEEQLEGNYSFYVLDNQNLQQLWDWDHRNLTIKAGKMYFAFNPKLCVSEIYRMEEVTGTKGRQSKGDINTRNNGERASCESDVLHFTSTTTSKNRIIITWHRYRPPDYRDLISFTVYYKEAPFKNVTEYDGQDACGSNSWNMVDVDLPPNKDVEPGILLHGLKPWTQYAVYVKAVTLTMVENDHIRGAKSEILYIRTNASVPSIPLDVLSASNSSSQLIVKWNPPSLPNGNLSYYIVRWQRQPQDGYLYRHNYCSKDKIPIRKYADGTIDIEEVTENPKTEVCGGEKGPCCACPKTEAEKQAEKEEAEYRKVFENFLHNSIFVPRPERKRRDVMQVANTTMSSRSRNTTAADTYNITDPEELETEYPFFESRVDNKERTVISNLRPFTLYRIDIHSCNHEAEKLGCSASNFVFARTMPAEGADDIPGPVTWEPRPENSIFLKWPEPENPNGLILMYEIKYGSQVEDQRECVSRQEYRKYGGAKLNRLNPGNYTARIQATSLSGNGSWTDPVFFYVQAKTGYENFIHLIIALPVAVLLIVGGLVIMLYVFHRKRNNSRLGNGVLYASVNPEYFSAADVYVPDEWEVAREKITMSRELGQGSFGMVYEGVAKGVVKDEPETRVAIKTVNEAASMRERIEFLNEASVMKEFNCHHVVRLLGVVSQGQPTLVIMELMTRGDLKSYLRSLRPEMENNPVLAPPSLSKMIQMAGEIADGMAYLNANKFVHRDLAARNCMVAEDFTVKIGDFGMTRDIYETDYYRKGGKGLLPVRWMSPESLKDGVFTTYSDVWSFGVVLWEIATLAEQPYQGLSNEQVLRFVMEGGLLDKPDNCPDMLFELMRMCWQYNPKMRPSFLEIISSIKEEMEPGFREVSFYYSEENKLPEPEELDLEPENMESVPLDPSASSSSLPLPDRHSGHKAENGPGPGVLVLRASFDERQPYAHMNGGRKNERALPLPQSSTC
Chain of TRKC (Q16288 32-839): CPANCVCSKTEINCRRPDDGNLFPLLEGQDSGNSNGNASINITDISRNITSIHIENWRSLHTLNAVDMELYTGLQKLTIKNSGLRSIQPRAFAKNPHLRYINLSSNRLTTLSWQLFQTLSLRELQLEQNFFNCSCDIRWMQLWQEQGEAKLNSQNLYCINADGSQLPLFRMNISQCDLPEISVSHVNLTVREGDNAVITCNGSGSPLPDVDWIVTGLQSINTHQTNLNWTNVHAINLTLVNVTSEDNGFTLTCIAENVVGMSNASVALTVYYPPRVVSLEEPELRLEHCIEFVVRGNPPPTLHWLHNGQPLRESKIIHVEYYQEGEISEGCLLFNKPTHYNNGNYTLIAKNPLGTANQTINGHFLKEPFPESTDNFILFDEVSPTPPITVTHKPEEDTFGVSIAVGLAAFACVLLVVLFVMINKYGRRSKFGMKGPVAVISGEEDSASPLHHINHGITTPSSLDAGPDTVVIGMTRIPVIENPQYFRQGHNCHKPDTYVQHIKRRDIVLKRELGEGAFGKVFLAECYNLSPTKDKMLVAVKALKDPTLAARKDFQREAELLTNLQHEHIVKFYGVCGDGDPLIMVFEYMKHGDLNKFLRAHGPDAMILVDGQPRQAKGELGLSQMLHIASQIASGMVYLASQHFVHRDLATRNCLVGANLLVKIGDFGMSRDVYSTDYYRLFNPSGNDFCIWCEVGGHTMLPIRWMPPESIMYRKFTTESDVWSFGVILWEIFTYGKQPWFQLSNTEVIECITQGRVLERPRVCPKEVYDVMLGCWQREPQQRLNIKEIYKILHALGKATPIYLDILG

With `Cc1ccc(NC(=O)c2ccc(CN3CCN(C)CC3)cc2)cc1Nc1nccc(-c2cccnc2)[n+]1[Pt-2]1([Cl])[NH2+]C2CCCCC2[NH2+]1` (centres unmarked) [1b, oxaliplatin-imatinib], the Percent control in [1] (EPHB3, 10 μM) is 87%; in assay [2], 94%; in assay [3], 1.2%; in assay [4], 94%; in [5] it was 100%; in assay [6], 85%. Moreover, the Percent control in assay [7] worked out at 96%; in [8], 0.2%; in assay [9], 0.9%; in assay [10] it was 99%; in [11], 100%; in [12] it was 85%. For the same compound, the Percent control is on record as 88% in [13]; 95% in [14]; 88% in [15]; 100% in assay [16] (IGF1R, 10 μM).

Consider `C#Cc1cccc(Nc2c3cc(OCCOC)c(OCCOC)cc3nc[n+]2[Pt@SP2-2]([NH3+])([NH3+])[Cl])c1` [2a, cisplatin-erlotinib], for which the Percent control in [1] (EPHB3, 10 μM) is recorded as 88%; in assay [2], 94%; in assay [3], 100%; in [4], 89%; in assay [5], 89%; in assay [6] it was 82%. Besides, the Percent control in assay [7] was determined as 77%; in [8], 86%; in assay [9] it was 73%; in assay [10] it was 90%; in assay [11], 93%; in [12], 88%. In addition, the Percent control is on record as 61% in [13]; 46% in assay [14]; 79% in [15]; 86% in [16] (IGF1R, 10 μM).

With `COc1cc2c(Nc3ccc(Br)cc3F)[n+]([Pt-2]3([Cl])[NH2+]C4CCCCC4[NH2+]3)cnc2cc1OCC1CCN(C)CC1` (centres unmarked) [3b, oxaliplatin-vandetanib], the Percent control was determined as 100% in [1] (EPHB3, 10 μM); 49% in assay [2]; 5.7% in [3]; 99% in assay [5]; 27% in assay [6]; 1.1% in assay [8]. The Percent control stood at 2.2% in [9]; 14% in assay [10]; 98% in assay [11]; 100% in assay [16] (IGF1R, 10 μM).

As to `C#Cc1cccc(Nc2ncnc3cc(OCCOC)c(OCCOC)cc23)c1` [Erlotinib], the remaining binding at 10 µM in [1] and in assay [16] was 100% each time. Moreover, the remaining activity at 10 µM in assay [17] worked out at 49%; in assay [18], 15.3%.

In the case of `Cc1ccc(NC(=O)c2ccc(CN3CCN(C)CC3)cc2)cc1Nc1nccc(-c2cccnc2)n1` [Imatinib, reference compound], the Percent control in assay [1] (EPHB3, 10 μM) amounted to 100%; in assay [2], 100%; in assay [4], 100%; in [5] it was 100%; in [6], 92%; in assay [7], 100%. Besides, the Percent control in assay [10], in [11], in [12], in assay [13], in [14] and in [15] was 100% each time. The compound further gave a Percent control in [16] (IGF1R, 10 μM) of 100%. For the same compound, the remaining activity at 10 µM in [17] was 100%; in assay [18], 0.3%.

In the case of `COc1cc2c(Nc3ccc(Br)cc3F)ncnc2cc1OCC1CCN(C)CC1` [Vandetanib, reference compound], the remaining binding at 10 µM in assay [1] (EPHB3, 10 μM) stood at 100%; in [16] (IGF1R, 10 μM) it was 100%. Moreover, the remaining activity at 10 µM in [17] amounted to 20%; in assay [18], 2.2%.
